What was measured:
[1] = system: human lung carcinoma A549 xenografts; assay: In vivo efficacy on human lung carcinoma A549 xenografts in nude mice; parameters: species or system BALB/C nude mice; conditions: ig, GSK2126458 3 mg/kg, compound 9 10 mg/kg
From the text: Strain: BALB/C nude mice (SPF grade), Source: Shanghai Slac laboratory animal limited liability company, the production license number: SCXK (Shanghai) 2007-0005, the using license number: SYXK (Shanghai) 2009-0068, gender: male, weight: 18-20 g, the number of animals per group: 6.
A549 solid tumors which were well-grown were taken, cut to uniform bits of about 3 mm size under aseptic condition, every bit was inoculated to each mouse subcutaneously in the right armpit with trocar, and randomly divided into three groups, each treatment was:
1) Control (saline), gavage, the dose 25 ml/kg, 14 days;
3) Compound 9, gavage, the dose 10 mg/kg, 14 days;
Regrouped according to tumor size on the 13th day after inoculation, the animals of which tumor size is too large and too small were eliminated, the average tumor volume of each group are basically the same. Administration was carried out according to the above regimen; the dosing volume was 0.5 ml/20 g body weight. The axis (a), shorter diameter (b) of tumor was measured 2 times a week with an electronic digital caliper, calculate formula of tumor volume (tumor volume, TV) is as follows: TV=1/2×a×b2, calculate formula of relative tumor volume (relative tumor volume, RTV), is as follows: RTV=Vt/Vo, wherein Vo is the tumor volume measured at the time when dividing cages (i.e. dl), Vt is the tumor volume measured each time. […] T test was conducted. Animals were sacrificed 30 days after inoculation, dissected and the tumor mass were taken, tumor weight was measured.

PI3Kβ = PI3Kβ (Homo sapiens, UniProt P42338); assay: ADP-Glo Luminescent Kinase Assay, PI3Kβ; assay type: biochemical; conditions: read-out: IC50 on PI3K beta
PI3Kα = PI3Kα (Homo sapiens, UniProt P42336); assay: Kinase-Glo Luminescent Kinase Assay, PI3Kα; assay type: biochemical
Sequence of PI3Kα (P42336 whole entry, species assumed): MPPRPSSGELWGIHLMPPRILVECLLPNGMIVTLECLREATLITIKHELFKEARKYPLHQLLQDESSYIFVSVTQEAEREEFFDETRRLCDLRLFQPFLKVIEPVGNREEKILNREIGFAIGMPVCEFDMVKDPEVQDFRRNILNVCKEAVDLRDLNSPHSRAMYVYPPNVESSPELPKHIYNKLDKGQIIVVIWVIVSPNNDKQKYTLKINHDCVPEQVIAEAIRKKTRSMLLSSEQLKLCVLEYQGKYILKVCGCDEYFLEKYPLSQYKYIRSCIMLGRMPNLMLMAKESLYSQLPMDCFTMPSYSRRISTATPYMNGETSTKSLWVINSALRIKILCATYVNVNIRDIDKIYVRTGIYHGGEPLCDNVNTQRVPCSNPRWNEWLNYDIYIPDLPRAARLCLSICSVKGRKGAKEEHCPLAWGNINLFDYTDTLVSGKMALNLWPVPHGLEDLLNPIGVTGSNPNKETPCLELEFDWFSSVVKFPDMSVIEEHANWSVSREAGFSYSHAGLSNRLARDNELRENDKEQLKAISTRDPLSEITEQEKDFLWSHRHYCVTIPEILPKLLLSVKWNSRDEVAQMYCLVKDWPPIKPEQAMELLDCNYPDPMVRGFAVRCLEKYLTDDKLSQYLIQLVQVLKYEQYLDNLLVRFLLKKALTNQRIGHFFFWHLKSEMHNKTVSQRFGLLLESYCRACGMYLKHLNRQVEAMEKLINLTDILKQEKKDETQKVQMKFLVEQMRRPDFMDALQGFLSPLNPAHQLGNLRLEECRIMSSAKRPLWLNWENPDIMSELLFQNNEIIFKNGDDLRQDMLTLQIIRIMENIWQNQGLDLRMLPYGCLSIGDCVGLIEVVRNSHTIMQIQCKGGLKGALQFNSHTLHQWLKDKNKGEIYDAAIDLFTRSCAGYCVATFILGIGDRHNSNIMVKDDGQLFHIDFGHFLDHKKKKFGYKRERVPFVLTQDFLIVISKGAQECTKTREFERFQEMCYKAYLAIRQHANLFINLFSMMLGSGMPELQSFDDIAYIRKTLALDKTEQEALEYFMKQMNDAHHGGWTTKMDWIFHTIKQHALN
Sequence of PI3Kα (P27986 whole entry partner, species assumed): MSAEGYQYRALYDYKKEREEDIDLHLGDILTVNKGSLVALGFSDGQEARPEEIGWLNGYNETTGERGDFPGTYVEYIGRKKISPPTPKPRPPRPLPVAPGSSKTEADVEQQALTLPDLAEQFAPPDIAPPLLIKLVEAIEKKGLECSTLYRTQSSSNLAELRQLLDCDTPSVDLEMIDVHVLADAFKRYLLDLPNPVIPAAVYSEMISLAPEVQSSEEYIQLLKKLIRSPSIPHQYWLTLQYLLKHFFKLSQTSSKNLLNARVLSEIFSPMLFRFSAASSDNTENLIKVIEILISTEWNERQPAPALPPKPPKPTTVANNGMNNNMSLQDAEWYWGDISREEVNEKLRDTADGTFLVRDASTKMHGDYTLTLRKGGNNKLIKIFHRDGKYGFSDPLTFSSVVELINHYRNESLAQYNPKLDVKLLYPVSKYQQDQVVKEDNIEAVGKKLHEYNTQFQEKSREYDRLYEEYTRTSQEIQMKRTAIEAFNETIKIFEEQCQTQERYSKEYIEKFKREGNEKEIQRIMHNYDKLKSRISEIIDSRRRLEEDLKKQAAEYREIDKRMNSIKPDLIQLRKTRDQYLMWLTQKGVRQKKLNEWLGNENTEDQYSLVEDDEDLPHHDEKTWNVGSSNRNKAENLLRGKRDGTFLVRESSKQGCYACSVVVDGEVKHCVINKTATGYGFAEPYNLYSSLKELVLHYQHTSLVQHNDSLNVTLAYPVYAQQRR

Sequence of PI3Kβ (P42338 whole entry, species assumed): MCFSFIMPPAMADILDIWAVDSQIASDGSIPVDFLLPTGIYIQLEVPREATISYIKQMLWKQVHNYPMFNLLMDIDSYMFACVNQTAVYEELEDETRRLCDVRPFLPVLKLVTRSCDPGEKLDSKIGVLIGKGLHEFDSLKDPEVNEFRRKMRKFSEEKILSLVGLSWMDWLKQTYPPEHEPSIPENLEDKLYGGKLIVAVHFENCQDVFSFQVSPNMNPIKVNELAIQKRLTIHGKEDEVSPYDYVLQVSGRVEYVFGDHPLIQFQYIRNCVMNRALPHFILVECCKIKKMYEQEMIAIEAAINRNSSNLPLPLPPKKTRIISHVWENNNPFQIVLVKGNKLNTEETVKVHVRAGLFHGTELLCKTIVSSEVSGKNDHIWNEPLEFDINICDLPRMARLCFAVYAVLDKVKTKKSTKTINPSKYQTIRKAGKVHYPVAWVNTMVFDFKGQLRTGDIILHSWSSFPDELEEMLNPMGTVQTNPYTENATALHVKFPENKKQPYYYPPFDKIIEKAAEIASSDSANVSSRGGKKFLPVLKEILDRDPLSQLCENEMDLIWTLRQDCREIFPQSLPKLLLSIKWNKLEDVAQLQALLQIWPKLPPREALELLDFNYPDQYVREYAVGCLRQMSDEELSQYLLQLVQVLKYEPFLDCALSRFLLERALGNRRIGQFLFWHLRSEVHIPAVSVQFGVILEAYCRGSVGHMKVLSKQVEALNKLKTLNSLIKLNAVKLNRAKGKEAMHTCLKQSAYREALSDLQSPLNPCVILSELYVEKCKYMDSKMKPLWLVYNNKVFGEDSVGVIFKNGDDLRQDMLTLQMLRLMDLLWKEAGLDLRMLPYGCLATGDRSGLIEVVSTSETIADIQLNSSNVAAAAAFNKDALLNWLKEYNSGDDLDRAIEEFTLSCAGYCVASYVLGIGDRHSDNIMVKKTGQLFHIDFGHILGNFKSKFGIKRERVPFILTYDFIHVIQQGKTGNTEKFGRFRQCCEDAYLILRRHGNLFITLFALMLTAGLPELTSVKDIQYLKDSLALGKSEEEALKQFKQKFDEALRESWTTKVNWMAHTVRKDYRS
Sequence of PI3Kβ (P27986 whole entry partner, species assumed): as the sequence (P27986 whole entry partner, species assumed) above

## COc1ncc(-c2ccc3nccc(-c4ccc(CN(C)C)cc4)c3c2)cc1NS(=O)(=O)c1ccc(F)cc1F [Compound 9, N-(5-(4-(4-((dimethylamine)methyl)phenyl)quinolin-6-yl)-2-methoxypyridine-3-yl)-2,4-difluorobenzenesulfonamide]
[1]; at end
  Animal wight (g) (tumor removed): 23.28 ± 1.34 g
[1]; d18
  RTV (d18) x ± SD: 5.37 ± 1.86
PI3Kβ
  IC50: 1.8 nM
PI3Kα
  IC50: 1.3 nM

From patent US20160168118A1, “N-(5-QUINOLIN-6-YL)PYRIDIN-3-YL) BENZSULFAMIDE DERIVATIVES, PREPARATION METHOD AND THERAPEUTIC USE THEREOF” (SECOND MILITARY MEDICAL UNIVERSITY, PLA, priority 2012, published 2016)
